We go through one compound from patent US20050112131A1, “Methods of adjuvant photodynamic therapy to enhance radiation sensitization” (priority 2002, published 2005).

The subject of assay [1] is RIF-1 tumors. Nature of the assay: Tumor oxygen by EPR oximetry at different irradiances. Format: in vivo, mice. Conditions: light 3 hours post-injection. As for the experimental part:
Tumor oxygen changes were measured in mice treated either with aminolevulinic acid-induced protoporphyrin IX (ALA-PPIX) or verteporfin. Using electron paramagnetic resonance (EPR) oximetry described in Example 1, two irradiance levels were performed three hours post-injection of verteporfin or ALA-PPIX. Irradiance levels for ALA-PPIX were 30 mW/cm^2 and 150 mW/cm^2, whereas 50 mW/cm^2 and 200 mW/cm^2 were used for verteporfin.
EPR oximetry measured tumor oxygenation in RIF-1 tumor cells and in tumorigenic mice treated with photodynamic therapy, using synthetic lithium phthalocyanine (LiPc) as the oxygen-sensitive EPR material. Small particles between 50 and 200 μm in size were implanted into the animal tumors by 23-gauge needle at a depth of 1-3 mm within the tumor. Injections of LiPc were performed at least 24 hours prior to photodynamic therapy. Mice were placed in an L-band (1.2 GHz) EPR spectrometer with a microwave bridge that was custom-built for small animal experiments involving measurement of tissue pO2. Each mouse was anesthetized and placed in the EPR resonator for continuous measurement of the tumor tissue pO2 in 15-minute intervals. The external loop resonator was positioned over the tumor to record the EPR signal of injected LiPc within the tissue. Line widths of the EPR signal were converted to pO2 using a calibration curve determined for LiPc. The data were fit with a software program to match the Voigt line shape after the line widths were graphed as a function of time before, during, and after treatment.

Assay [2] concerns RIF-1 tumors. The experiment in a line: Tumor pO2 by Eppendorf electrode after ALA photodynamic therapy. It is filed as in vivo, mice. As for the experimental part:
To independently confirm the results described above in ALA-PPIX-treated animals, Eppendorf pO2 electrode measurements were performed in the same tumor model. Two sections of animals with tumors were irradiated for 45 minutes. The first group of animals received ALA-injections 3 hours prior to light irradiation at a concentration of 100 mg/kg, and the second group received light alone. The light was at a wavelength of 633 nm, at a fluence of 150 mW/cm^2. Measurements were taken from the tumors immediately after the light was turned off. […] Collected data were pooled from three tracks in each animal with seven control animals (FIG. 7A) and 6 treated animals (FIG. 7B). The median pO2 for the control group was 3.7 mm Hg, while the median for the treated group was 8.7 mm Hg. Clearly, significant increases in tumor oxygenation occurred after treatment.

Turning to `NCC(=O)CCC(=O)O` [ALA, 5-aminolevulinic acid], the “tumor pO2 levels during treatment, low irradiance” value with RIF-1 tumors [1] (50 mW/cm^2 verteporfin, 30 mW/cm^2 ALA-PPIX) is “remained the same”. For the same compound, in the assay with RIF-1 tumors [1] (200 mW/cm^2 verteporfin, 150 mW/cm^2 ALA-PPIX), the “tumor pO2 levels during treatment, high irradiance” value is recorded as “a measurable drop in oxygen”. Further, the “median tumor pO2 immediately after light” value in the assay on RIF-1 tumors [2] (100 mg/kg ALA 3 hours prior to 633 nm light, 150 mW/cm^2 for 45 minutes, light-only control median 3.7) came to 8.7 mm Hg. Moreover, the “increase in tumor oxygenation” value in the assay with RIF-1 tumors [2] (EPR oximetry and Eppendorf electrode, treated vs control) is reported as “more than two-fold increases”.
